Measurements from publication PMC8227119, “Urinary Elimination of Ecdysterone and Its Metabolites Following a Single-Dose Administration in Humans” (Metabolites, 2021).
Where “and” joins values, the source holds several entries; their conditions need not be identical. Equal entries are not always repeated. Where two headings read alike, the source gives them in different places.

Experiments:
[1] = Stability of analytes in spiked urine QC samples (bench-top, long term, freeze-thaw); assay type: in vitro ADME, human; settings: vs t = 0, mean n = 3
Experimental: The stability of ecdysterone and 14-deoxy-ecdysterone in urine was determined in triplicates, using the LQC and HQC samples, which were analyzed immediately and again after storage, as reported in Table 4. Freshly prepared QC samples (at t = 0) were used as baseline to assess the stability.
To evaluate the bench-top stability, LQC and HQC samples were left at room temperature for 4, 8, and 24 h, before analysis. Freeze and thaw stability was evaluated after three cycles for LQC and HQC. Long-term stability was evaluated analyzing the LQC and HQC samples, after storing them at −20 °C for two weeks. The results of the stability tests applied were calculated using the peak area ratio of the analytes to the ISTD, which were compared to the baseline (t = 0). Comparing the mean of the ratios after a specific storage condition to the mean of the ratio at t = 0. The results obtained were all within the ±15%.

[2] = Urinary excretion and pharmacokinetics after a single oral dose of 50 mg of pure ecdysterone (LC-MS/MS of urine); assay type: in vivo, human; settings: for Subjects in whose post-administration urine the analyte was detected: 12 subjects; for Cmax / half-life / Tmax: both sexes; for Cmax / half-life: human, po, 50 mg; for Tmax: read-out: Tmax (time to maximum urinary concentration); for Cumulative urinary excretion percentage relative to dose, mean / Cumulative urinary excretion percentage relative to dose, range over subjects: percent of the 50 mg dose; for Cumulative urinary excretion percentage relative to dose, mean: mean value; for Cumulative Du (cumulative amount excreted in urine): mean ± SD of 12 subjects (14-deoxy-poststerone n = 10); for Kinetics of urinary elimination: log-linear rate of excretion versus middle-point time; for Difference of cumulative urinary excretion percentage between male and female (T-test): p ≤ 0.05, 5 males, 7 females
Experimental: The study was approved by the ethical committee of the German Sport University Cologne, and was carried out following the regulations of the Helsinki declaration. Twelve healthy subjects (7 females and 5 males) with a mean age (standard deviation [SD]) of 26 (3.1) y, weight of 74 (12.0) kg, and height of 174 (8.3) cm participated in the study. A single-dose of 50 mg of pure ecdysterone dissolved in 50 cl of alcoholic solution was administered to the subjects. All doses were administered at 9.00 a.m. in the morning. The urine samples were collected one day before (blank samples) and five days after the administration of ecdysterone. Sampling time (h) and urine volume (mL) were recorded. Aliquots of urine samples were stored frozen at −18 °C, until analysis.
Urine samples (200 µL) spiked with 10 µL of the ISTD ponasterone (working solution 10 µg/mL) and diluted to 1 mL with methanol:water (10:90, v/v). The tubes were vortex-mixed and then centrifuged at 9677 RCF for 8 min.
The analysis of ecdysterone and its metabolite in calibration and urine samples was performed by LC–MS/MS on an Agilent 1200 Infinity series, coupled to an Ultivo triple quadrupole tandem MS system, utilizing a Jet Stream electrospray ionization (ESI) source and an Ion Funnel (Agilent Technologies GmbH, Waldronn, Germany).
In this study, the excretion profile, the cumulative amount excreted in urine, and the half-life of ecdysterone and its metabolites, after a single-dose administration of 50 mg of pure ecdysterone were evaluated according to [45].
To obtain the excretion rates, Equation (1) was applied:(1) Erate,i=Ci x Vi/ (ti−ti−1)
For each urine sample, the calculated concentration (Ci, ng/mL) of ecdysterone, 14-deoxy-ecdysterone, and 14-deoxy-poststerone was adjusted as a function of the dilution factor applied (1:5) and of the volume of urine collected (Vi, mL), obtaining the corresponding amount of drug in urine (expressed in ng), which was divided by the interval between the time values of the sampling and the previous sampling (ti − ti−1).
The excretion profile curves of ecdysterone and its metabolites for each subject were then obtained by plotting the calculated rate of excretion values (ng/h) versus time (middle-point of sample collection, hours) or simply the calculated concentrations (ng/mL) versus time (sampling time, hours). The first collected interval started at 0 h after the oral administration of ecdysterone at 9 a.m.
For each sample, the amount of drug excreted in urine was calculated and added to the amount of drug recovered in the previous urine sample to obtain the cumulative urinary drug excretion, which was plotted in a graph versus the sampling time (hours).
The half-life using the elimination rate constant (k) was calculated by applying Equation (2):(2) t1/2=ln(2)/k
Two different methods were used to calculate the elimination rate constant (k). In the rate of excretion method, k was obtained from the slope of the elimination phase of the ln-transformed excretion curve (Figure 6).
In the sigma minus method, k was obtained from the slope of the elimination phase of the ln-transformed remaining drug to be excreted.

[3] = HQC, bench-top room temperature 4 h
[4] = HQC, bench-top room temperature 8 h
[5] = HQC, bench-top room temperature 24 h
[6] = HQC, long term 2 weeks at −20 °C
[7] = LQC, bench-top room temperature 4 h
[8] = LQC, bench-top room temperature 8 h
[9] = LQC, bench-top room temperature 24 h
[10] = LQC, long term 2 weeks at −20 °C
[11] = single oral dose 50 mg ecdysterone
[12] = urine, human urine, single oral dose 50 mg ecdysterone, mean ± SD of 12 subjects (14-deoxy-poststerone n = 5), read-out: Cmax (maximum urinary concentration)
[13] = urine, human urine, single oral dose 50 mg ecdysterone, mean ± SD of 12 subjects (14-deoxy-poststerone n = 5), read-out: Half Life, Rate of Excretion method (converted)
[14] = urine, human urine, single oral dose 50 mg ecdysterone, mean ± SD of 12 subjects (14-deoxy-poststerone n = 5), read-out: Half Life, Sigma-Minus method (converted)
[15] = urine, human urine, single oral dose 50 mg ecdysterone, range over subjects, read-out: Maximum urinary concentration (Cmax), range over subjects
[16] = human urine, single oral dose 50 mg ecdysterone, mean ± SD of 12 subjects (14-deoxy-poststerone n = 5)
[17] = human urine, range over subjects
[18] = human urine, single oral dose 50 mg ecdysterone
[19] = human urine, single oral dose 50 mg ecdysterone, range over subjects

## CC(C)(O)CC[C@@H](O)[C@](C)(O)[C@H]1CC[C@H]2C3=CC(=O)[C@@H]4C[C@@H](O)[C@@H](O)C[C@]4(C)[C@H]3CC[C@]12C [14-deoxy-ecdysterone, Alpha-14-deoxy-ecdysterone]
[1]; [3]
  Stability%: 101%
[1]; [4]
  Stability%: 100%
[1]; [5]
  Stability%: 101%
[1]; HQC, freeze-thaw 3 cycles
  Stability%: 103%
[1]; [6]
  Stability%: 87%
[1]; [7]
  Stability%: 103%
[1]; [8]
  Stability%: 101%
[1]; [9]
  Stability%: 97%
[1]; LQC, freeze-thaw 3 cycles
  Stability%: 110%
[1]; [10]
  Stability%: 91%
[2]; [11]
  Subjects in whose post-administration urine the analyte was detected: all 12 subjects
[2]; [12]
  Cmax: 1400 ± 1600 ng/mL
[2]; [13]
  half-life: 186 ± 78 min
[2]; [14]
  half-life: 132 ± 54 min
[2]; [15]
  Cmax: 100 to 6000 ng/mL
[2]; urine, human urine, single oral dose 50 mg ecdysterone, read-out: Urinary half-life (approximate) (converted)
  half-life: ~180 min
[2]; [16]
  Tmax: 19.7 ± 8.9 h
  ERmax (maximum urinary rate of excretion): 0.1 ± 0.1 mg/h
  Midpoint Timemax (maximum urinary middle-point time): 17.5 ± 7.0 h
[2]; human urine
  Cumulative urinary excretion percentage relative to dose, mean: 2.3%
[2]; [17]
  Cumulative urinary excretion percentage relative to dose, range over subjects: 0.4–6.1%
[2]; [18]
  Duration of detectability in urine: about 3 days
  First detection in urine after administration (start of detection window): 2.95 h
  Remained detectable in urine until (end of detection window): 75 h
  Urinary half-life (approximate): three
  Cumulative Du (cumulative amount excreted in urine): 1.1 ± 0.9 mg
[2]; [19]
  Maximum excretion rate, range over subjects: 0.02 to 0.24 mg/h
  Time of the urine with maximum concentration, range over subjects: 8.5 to 39.5 h and 8.5 to 39.50 h
  Time of the urine with maximum excretion rate, range over subjects: 10.1 to 29.5 h
[2]; in 58.3% of subjects
  Time at which cumulative urinary excretion reaches a plateau: 25 to 40 h
[2]; in the remaining 16.6% of subjects
  Time at which cumulative urinary excretion reaches a plateau: 40 to 62 h
[2]
  Kinetics of urinary elimination: first-order kinetics
  Difference of cumulative urinary excretion percentage between male and female (T-test): No significant difference

## CC(=O)[C@H]1CC[C@H]2C3=CC(=O)[C@@H]4C[C@@H](O)[C@@H](O)C[C@]4(C)[C@H]3CC[C@]12C [14-deoxy-poststerone, alpha-14-deoxy-poststerone]
[2]; [11]
  Subjects in whose post-administration urine the analyte was detected: 10 out of 12
[2]; [12]
  Cmax: 800 ± 700 ng/mL
[2]; [13]
  half-life: 582 ± 570 min
[2]; [14]
  half-life: 264 ± 60 min
[2]; [15]
  Cmax: 100 to 1500 ng/mL
[2]; [16]
  Tmax: 30.1 ± 7.2 h
  ERmax (maximum urinary rate of excretion): 0.1 ± 0.1 mg/h
  Midpoint Timemax (maximum urinary middle-point time): 27.8 ± 3.7 h
[2]; human urine
  Cumulative urinary excretion percentage relative to dose, mean: 1.5%
[2]; [17]
  Cumulative urinary excretion percentage relative to dose, range over subjects: 0.01–4.9%
[2]; [18]
  Duration of detectability in urine: about 4 days
  First detection in urine after administration (start of detection window): 8.50 h
  Remained detectable in urine until (end of detection window): 97 h
  Cumulative Du (cumulative amount excreted in urine): 0.7 ± 1.1 mg
[2]; [19]
  Time of the urine with maximum concentration, range over subjects: 23.3 to 41.3 h
[2]
  Difference of cumulative urinary excretion percentage between male and female (T-test): significant difference

## CC(C)(O)CC[C@@H](O)[C@](C)(O)[C@H]1CC[C@@]2(O)C3=CC(=O)[C@@H]4C[C@@H](O)[C@@H](O)C[C@]4(C)[C@H]3CC[C@]12C [Ecdysterone, 2β,3β,14α,20β,22R,25-hexahydroxy-5β-cholest-7-en-6-one]
[1]; [3]
  Stability%: 101%
[1]; [4]
  Stability%: 98%
[1]; [5]
  Stability%: 100%
[1]; HQC, freeze-thaw 3 cycles
  Stability%: 103%
[1]; [6]
  Stability%: 87%
[1]; [7]
  Stability%: 100%
[1]; [8]
  Stability%: 104%
[1]; [9]
  Stability%: 100%
[1]; LQC, freeze-thaw 3 cycles
  Stability%: 111%
[1]; [10]
  Stability%: 94%
[2]; [11]
  Subjects in whose post-administration urine the analyte was detected: all subjects
[2]; in vivo, human urine, single oral dose 50 mg ecdysterone, mean ± SD of 12 subjects (14-deoxy-poststerone n = 5), read-out: Cmax (maximum urinary concentration)
  Cmax: 12100 ± 9200 ng/mL
[2]; in vivo, human urine, single oral dose 50 mg ecdysterone, mean ± SD of 12 subjects (14-deoxy-poststerone n = 5), read-out: Half Life, Rate of Excretion method (converted)
  half-life: 204 ± 60 min
[2]; in vivo, human urine, single oral dose 50 mg ecdysterone, mean ± SD of 12 subjects (14-deoxy-poststerone n = 5), read-out: Half Life, Sigma-Minus method (converted)
  half-life: 180 ± 60 min
[2]; in vivo, human urine, single oral dose 50 mg ecdysterone, range over subjects, read-out: Maximum urinary concentration (Cmax), range over subjects
  Cmax: 4400 to 30000 ng/mL
[2]; in vivo, human urine, single oral dose 50 mg ecdysterone, read-out: Urinary half-life (approximate) (converted)
  half-life: ~180 min
[2]; in vivo, human urine, single oral dose 50 mg ecdysterone, mean ± SD of 12 subjects (14-deoxy-poststerone n = 5)
  Tmax: 4.6 ± 1.8 h
[2]; human urine
  Cumulative urinary excretion percentage relative to dose, mean: 18%
[2]; [17]
  Cumulative urinary excretion percentage relative to dose, range over subjects: 2.8–47.2%
[2]; human urine, post-dosage
  Time at which cumulative urinary excretion reaches a plateau: 12 h
[2]; [18]
  Duration of detectability in urine: more than 2 days
  First detection in urine after administration: 45 min
  Remained detectable in urine until (end of detection window): 58 h
  Urinary half-life (approximate): three
  Cumulative Du (cumulative amount excreted in urine): 8.8 ± 6.6 mg
[2]; [16]
  ERmax (maximum urinary rate of excretion): 1.7 ± 1.4 mg/h
  Midpoint Timemax (maximum urinary middle-point time): 2.1 ± 1.3 h
[2]; [19]
  Maximum excretion rate, range over subjects: 0.1 to 4.8 mg/h
  Time of the urine with maximum concentration, range over subjects: 2.8 to 8.5 h
  Time of the urine with maximum excretion rate, range over subjects: 0.4 to 4.4 h
[2]
  Kinetics of urinary elimination: first-order kinetics
  Difference of cumulative urinary excretion percentage between male and female (T-test): No significant difference
[2]; listed as ecdysterone
  Kinetics of urinary elimination: first-order
